In the NIST ThermoML archive (doi:10.1021/je101304x):

Conditions: Liquid, Ebulliometric method (Recirculating still)

C=C(C)C(C)C [2,3-dimethyl-1-butene]
Conditions	vapor or sublimation pressure [kPa]
341.87 K	153.7
343.06 K	158.1
343.95 K	162.3
345.83 K	171.3
347.12 K	178.2
348.71 K	186.4
350.49 K	196.3
352.78 K	208.6
353.27 K	211.3
354.06 K	216.3
356.15 K	228.9
358.73 K	244.9
361.3 K	262.1
362.89 K	273.7
363.19 K	275.3
364.38 K	284.9
365.57 K	292.7
366.96 K	303.8
368.24 K	313.9
369.04 K	319.7
370.13 K	328.6
371.12 K	336.4
372.21 K	346.1
372.9 K	351.5
373.7 K	358.8
374.59 K	366.7
375.19 K	372.1
375.78 K	377.4
376.87 K	386.8
377.37 K	391.7

c1ccccc1 [benzene]
Conditions	vapor or sublimation pressure [kPa]
403.15 K	379.3

C1CCCCC1 [cyclohexane]
Conditions	vapor or sublimation pressure [kPa]
403.15 K	362.8

CO [methanol]
Conditions	vapor or sublimation pressure [kPa]
333.42 K	85.4
334.56 K	89.5
337.65 K	101.3
342.17 K	120.9
343.06 K	124.8
346.64 K	142.6
350.25 K	163.2
353.17 K	181
353.27 K	181.7
356.35 K	202.7
358.91 K	221.3
361.45 K	241.4
363.19 K	255.9
363.85 K	261.6
366.88 K	288.9
370.13 K	321.3
372.04 K	341.2
372.9 K	350.9
375.89 K	385.4
